What was measured:
Test in all cases: Kinase panel (Eurofins)
Type in all cases: biochemical
Conditions in all cases: n = 2; for inhibition at 1 µM: at 1 μmol/L; for IC50: read-out: IC50 kinase inhibition
[1] = target: T1, Fes(h) (Homo sapiens, UniProt P07332)
T1 construct: purchased Eurofins
Source text: (§1) These receptors have a methionine gatekeeper in their kinase domains, and are related to hyperglycemia in other clinical trials of EGFR TKI, such as Co-1686.

[2] = target: T2, HIPK4(h) (Homo sapiens, UniProt Q8NE63)
T2 construct: purchased Eurofins
T2 sequence (Q8NE63 1-616): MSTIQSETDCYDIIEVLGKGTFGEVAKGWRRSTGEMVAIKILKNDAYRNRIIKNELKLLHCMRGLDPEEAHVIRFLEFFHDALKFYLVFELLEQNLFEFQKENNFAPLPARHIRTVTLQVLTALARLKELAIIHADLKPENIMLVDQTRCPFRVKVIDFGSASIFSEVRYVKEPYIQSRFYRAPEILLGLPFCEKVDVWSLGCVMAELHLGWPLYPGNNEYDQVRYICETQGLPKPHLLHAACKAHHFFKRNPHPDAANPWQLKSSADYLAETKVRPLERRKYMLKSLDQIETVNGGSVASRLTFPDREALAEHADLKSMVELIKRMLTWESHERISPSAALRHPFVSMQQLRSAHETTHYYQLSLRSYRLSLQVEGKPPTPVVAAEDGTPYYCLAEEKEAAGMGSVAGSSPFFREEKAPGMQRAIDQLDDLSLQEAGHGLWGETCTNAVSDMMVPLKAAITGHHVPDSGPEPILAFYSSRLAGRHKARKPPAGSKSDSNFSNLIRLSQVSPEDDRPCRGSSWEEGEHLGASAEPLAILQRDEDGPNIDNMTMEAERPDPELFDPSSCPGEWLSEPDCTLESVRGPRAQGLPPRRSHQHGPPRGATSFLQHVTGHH
Source text: as §1

[3] = target: T3, IGF-1R(h), activated (Homo sapiens, UniProt P08069)
T3 construct: purchased Eurofins
Source text: as §1

[4] = target: T4, IR(h), activated (Homo sapiens, UniProt P06213)
T4 construct: purchased Eurofins
Source text: as §1

[5] = target: T5, Itk(h) (Homo sapiens, UniProt Q08881)
T5 construct: purchased Eurofins
T5 sequence (Q08881 1-620): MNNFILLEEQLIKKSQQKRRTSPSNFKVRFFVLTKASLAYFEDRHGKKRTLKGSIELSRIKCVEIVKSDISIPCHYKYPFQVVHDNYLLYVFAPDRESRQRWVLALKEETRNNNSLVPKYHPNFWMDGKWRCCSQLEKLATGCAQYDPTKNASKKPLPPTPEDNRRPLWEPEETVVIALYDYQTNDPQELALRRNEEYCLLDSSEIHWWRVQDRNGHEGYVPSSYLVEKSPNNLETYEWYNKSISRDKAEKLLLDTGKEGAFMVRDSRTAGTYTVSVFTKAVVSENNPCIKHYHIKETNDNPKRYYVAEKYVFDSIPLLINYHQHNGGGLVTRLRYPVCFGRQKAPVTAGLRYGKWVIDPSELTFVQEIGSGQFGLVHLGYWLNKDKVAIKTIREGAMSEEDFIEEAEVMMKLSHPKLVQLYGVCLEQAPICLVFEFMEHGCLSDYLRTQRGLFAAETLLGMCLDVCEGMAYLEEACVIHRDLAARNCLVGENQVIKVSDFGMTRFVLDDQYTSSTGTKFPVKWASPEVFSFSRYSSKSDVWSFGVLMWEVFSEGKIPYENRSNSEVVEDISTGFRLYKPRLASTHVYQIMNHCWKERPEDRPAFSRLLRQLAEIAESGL
Source text: as §1

[6] = target: T6, LTK(h) (Homo sapiens, UniProt P29376)
T6 construct: purchased Eurofins
Source text: as §1

[7] = target: T7, MYO3B(h) (Homo sapiens, UniProt Q8WXR4)
T7 construct: purchased Eurofins
T7 sequence (Q8WXR4 1-1341): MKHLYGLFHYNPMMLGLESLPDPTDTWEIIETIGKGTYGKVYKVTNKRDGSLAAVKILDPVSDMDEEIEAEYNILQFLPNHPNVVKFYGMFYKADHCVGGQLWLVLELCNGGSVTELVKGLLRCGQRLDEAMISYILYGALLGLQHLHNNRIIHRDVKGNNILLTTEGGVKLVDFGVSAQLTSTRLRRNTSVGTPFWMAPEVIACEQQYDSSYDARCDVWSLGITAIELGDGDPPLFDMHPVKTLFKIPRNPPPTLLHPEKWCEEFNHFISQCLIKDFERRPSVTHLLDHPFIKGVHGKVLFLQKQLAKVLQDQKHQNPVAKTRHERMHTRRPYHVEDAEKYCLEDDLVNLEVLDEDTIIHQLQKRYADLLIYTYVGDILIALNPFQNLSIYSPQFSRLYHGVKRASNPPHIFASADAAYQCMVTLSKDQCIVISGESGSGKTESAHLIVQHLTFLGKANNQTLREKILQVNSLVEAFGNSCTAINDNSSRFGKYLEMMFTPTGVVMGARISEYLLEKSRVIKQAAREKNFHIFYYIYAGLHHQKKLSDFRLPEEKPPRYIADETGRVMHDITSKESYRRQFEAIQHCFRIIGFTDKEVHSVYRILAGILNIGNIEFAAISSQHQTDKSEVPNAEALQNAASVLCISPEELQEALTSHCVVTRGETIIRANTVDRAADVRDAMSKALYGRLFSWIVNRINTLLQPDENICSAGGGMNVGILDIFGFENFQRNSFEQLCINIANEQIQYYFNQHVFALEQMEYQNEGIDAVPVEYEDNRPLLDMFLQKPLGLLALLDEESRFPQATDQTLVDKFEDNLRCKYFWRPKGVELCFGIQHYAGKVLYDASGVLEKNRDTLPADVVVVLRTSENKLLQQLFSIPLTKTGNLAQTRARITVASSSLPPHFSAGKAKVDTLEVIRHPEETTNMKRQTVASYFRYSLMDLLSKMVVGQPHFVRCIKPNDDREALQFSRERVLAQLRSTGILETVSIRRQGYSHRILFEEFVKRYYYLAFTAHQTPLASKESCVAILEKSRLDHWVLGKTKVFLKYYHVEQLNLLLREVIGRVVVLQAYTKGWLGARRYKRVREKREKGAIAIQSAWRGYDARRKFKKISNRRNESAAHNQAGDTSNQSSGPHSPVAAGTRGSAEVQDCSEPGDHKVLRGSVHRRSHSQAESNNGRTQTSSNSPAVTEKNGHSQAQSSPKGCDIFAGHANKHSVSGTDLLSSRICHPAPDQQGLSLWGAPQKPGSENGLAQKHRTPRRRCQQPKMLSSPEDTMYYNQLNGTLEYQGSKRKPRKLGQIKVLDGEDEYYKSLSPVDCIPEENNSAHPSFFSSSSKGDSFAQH
Source text: as §1

T3 sequence (P08069 31-1367): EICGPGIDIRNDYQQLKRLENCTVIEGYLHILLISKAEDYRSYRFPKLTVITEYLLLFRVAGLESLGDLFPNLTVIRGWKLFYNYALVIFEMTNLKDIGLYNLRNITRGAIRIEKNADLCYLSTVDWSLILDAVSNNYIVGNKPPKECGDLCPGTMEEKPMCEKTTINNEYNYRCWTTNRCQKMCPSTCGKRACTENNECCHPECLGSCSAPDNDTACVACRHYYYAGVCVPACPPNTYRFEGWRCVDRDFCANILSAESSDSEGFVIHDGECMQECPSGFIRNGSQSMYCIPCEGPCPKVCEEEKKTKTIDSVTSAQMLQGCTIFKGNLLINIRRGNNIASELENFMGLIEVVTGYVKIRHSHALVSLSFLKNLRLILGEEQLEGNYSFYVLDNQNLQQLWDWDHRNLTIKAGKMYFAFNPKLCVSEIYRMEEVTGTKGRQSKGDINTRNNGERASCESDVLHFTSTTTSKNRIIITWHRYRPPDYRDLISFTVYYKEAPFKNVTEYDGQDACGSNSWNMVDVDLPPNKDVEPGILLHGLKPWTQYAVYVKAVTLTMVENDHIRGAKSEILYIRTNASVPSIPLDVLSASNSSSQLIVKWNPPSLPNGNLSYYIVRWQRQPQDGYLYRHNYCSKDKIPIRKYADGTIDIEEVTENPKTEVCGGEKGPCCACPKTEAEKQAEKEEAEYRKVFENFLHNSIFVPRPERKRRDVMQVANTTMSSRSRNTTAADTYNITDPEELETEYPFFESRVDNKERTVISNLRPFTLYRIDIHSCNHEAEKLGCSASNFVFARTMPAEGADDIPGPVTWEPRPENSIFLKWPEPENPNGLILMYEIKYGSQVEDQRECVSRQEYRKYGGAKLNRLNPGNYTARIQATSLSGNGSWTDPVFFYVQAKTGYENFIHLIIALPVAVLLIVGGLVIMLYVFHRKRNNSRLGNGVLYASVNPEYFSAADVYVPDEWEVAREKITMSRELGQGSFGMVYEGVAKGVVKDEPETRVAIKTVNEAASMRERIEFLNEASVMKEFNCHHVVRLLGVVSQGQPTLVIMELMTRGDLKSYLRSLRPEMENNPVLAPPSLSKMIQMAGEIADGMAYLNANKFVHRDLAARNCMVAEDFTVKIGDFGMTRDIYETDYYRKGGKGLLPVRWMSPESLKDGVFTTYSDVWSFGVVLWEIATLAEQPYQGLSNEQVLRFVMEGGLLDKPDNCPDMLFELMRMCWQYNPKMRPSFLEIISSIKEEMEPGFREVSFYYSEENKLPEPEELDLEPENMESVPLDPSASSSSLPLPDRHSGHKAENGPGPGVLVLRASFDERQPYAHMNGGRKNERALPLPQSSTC
T4 sequence (P06213 28-1382): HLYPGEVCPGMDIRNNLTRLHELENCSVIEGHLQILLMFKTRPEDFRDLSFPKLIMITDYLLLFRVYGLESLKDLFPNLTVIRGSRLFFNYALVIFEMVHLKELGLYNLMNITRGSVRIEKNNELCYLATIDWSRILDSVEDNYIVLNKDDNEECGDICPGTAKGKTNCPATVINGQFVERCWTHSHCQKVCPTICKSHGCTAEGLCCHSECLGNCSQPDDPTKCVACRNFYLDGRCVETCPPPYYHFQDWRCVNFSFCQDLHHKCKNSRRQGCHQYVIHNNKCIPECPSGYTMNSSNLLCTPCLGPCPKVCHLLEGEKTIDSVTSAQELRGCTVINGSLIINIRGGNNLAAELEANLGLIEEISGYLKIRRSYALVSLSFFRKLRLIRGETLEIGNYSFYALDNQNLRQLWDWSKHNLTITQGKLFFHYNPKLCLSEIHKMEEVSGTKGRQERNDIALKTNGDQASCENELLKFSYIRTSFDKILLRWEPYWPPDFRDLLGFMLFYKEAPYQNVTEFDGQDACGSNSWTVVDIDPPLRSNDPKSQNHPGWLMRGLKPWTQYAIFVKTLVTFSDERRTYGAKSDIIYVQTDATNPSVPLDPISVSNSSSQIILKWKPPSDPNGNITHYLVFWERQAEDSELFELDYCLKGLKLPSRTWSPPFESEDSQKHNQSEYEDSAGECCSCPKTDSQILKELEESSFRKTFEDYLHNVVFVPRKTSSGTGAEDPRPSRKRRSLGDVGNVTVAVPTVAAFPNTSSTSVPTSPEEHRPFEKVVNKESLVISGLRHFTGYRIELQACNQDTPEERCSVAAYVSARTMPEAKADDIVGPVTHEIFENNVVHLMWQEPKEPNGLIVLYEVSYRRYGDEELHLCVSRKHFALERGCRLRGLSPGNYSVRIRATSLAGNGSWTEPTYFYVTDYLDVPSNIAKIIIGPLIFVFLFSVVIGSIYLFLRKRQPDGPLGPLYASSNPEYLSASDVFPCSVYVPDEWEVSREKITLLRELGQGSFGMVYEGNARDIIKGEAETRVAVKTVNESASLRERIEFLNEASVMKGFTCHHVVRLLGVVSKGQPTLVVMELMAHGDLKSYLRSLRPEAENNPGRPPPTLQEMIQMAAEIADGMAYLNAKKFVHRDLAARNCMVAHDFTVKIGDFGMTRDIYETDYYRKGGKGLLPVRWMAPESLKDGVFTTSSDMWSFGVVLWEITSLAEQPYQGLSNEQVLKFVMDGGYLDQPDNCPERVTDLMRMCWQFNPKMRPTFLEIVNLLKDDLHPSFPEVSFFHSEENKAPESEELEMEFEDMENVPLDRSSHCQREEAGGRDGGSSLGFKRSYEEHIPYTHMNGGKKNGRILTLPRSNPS
T6 sequence (P29376 17-864): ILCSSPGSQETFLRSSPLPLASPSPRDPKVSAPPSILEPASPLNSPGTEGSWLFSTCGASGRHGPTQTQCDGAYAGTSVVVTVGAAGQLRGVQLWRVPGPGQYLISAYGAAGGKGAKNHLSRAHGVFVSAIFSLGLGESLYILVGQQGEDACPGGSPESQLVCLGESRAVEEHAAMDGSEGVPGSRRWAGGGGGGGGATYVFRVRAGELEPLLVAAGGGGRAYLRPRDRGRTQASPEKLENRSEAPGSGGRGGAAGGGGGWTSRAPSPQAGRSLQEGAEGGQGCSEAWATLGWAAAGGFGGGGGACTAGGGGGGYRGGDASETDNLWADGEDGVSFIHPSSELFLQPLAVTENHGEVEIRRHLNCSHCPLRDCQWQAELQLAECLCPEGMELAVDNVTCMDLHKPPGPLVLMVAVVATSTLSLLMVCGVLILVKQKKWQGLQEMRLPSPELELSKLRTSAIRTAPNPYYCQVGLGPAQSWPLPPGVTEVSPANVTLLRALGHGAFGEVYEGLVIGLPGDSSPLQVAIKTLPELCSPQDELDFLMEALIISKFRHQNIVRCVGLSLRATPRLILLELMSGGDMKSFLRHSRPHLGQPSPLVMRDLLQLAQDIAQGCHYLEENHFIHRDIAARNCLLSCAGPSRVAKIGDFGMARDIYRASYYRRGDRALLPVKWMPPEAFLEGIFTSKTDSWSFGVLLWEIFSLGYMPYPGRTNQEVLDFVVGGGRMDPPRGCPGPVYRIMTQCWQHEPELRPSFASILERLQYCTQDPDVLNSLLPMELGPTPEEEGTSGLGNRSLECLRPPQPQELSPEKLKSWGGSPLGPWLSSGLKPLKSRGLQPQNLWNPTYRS
T1 sequence (P07332 whole entry): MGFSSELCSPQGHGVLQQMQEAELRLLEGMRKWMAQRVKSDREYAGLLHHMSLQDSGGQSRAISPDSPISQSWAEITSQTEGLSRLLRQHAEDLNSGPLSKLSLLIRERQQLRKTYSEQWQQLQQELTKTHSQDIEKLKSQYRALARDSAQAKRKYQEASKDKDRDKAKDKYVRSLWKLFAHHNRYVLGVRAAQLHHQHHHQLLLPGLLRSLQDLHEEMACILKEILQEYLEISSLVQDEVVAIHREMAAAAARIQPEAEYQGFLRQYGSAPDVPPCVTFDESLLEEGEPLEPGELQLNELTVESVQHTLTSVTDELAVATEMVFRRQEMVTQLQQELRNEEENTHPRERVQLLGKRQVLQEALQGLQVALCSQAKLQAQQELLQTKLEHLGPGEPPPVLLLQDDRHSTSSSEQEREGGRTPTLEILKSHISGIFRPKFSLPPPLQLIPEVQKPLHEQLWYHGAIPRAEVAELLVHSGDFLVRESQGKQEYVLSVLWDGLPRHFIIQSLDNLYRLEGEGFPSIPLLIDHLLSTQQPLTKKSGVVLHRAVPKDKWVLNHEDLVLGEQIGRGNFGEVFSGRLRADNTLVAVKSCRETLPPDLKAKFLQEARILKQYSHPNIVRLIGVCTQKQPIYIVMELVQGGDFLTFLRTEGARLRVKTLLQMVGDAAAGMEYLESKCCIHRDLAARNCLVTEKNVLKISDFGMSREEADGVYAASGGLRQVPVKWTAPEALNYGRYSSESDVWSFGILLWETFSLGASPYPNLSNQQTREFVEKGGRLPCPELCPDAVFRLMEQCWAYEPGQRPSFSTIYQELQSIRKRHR

Row | inhibition at 1 µM [1] | IC50 [1] | inhibition at 1 µM [2] | IC50 [2] | inhibition at 1 µM [3] | IC50 [3] | inhibition at 1 µM [4] | IC50 [4] | inhibition at 1 µM [5] | IC50 [5] | inhibition at 1 µM [6] | IC50 [6] | inhibition at 1 µM [7] | IC50 [7] | Compound
1 | 74% | 309 nM | 82% | 276 nM | 64% | 709 nM | 74% | 321 nM | 68% | 825 nM | 93% | 61 nM | 67% | 506 nM | C=CC(=O)Nc1cc(Nc2nccc(-c3c4n(c5ccccc35)CCCC4)n2)c(OC)cc1N(C)CCNC [Imp3]
2 | 46% | 557 nM | 67% | 232 nM | 46% | 499 nM | 58% | 241 nM | 66% | 320 nM | 83% | 81 nM | 58% | 349 nM | C=CC(=O)Nc1cc(Nc2nccc(-c3c4n(c5ccccc35)CCCC4)n2)c(OC)cc1N(C)CCN(C)C [SH-1028]

— paper PMC8111447 (Frontiers in Pharmacology, 2021)
